For 21 molecules, IC50 results are on record in patent US10640506B2, “Cyclobutyl substituted pyrrolopyridine and pyrrolopyrimidines derivatives as JAK inhibitors” (Incyte Corporation, priority 2010, dated 2020).

For one test, the target named is T1, JAK2 (a.a. 828-1132) (Homo sapiens, UniProt O60674).
T1 construct: JAK2 (a.a. 828-1132); His tag (N)
The test is described as follows: In vitro JAK kinase assay (HTRF, phosphorylation of biotinylated peptide), JAK2. It is filed as biochemical. As to conditions: 1 mM ATP, read-out: JAK2 IC50. The method in brief:
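HTRF detection (Eu-Py20, SA-APC, 40 min) of biotinylated-peptide phosphorylation, following a 1 hour room-temperature reaction quenched with 45 mM EDTA. Enzymes: insect-cell-expressed N-terminal His-tagged JAK1 (837-1142) and JAK2 (828-1132) catalytic domains. Activities reported in ranged categories.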
(In general: Time-resolved FRET reads energy transfer from a long-lived donor to a nearby acceptor.)

The target in test [1] is human JAK1 (a.a. 837-1142) (Homo sapiens, UniProt P23458). The test is described as follows: In vitro JAK kinase assay (HTRF, phosphorylation of biotinylated peptide), JAK1. In kind it is biochemical. As to conditions: 1 mM ATP, read-out: JAK1 IC50. The method in brief: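 Phosphorylation of a biotinylated peptide was run at room temperature for 1 hour using the N-terminally His-tagged JAK1 kinase domain (837-1142) from insect cells. After an EDTA stop, Eu-Py20 and SA-APC gave an HTRF read; values are binned potency ranges.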

The structures appear in SMILES notation. Structures can show the parent of a compound that is named as a salt. Where two headings read alike, the source gives them in different places.

Chain of human JAK1 (a.a. 837-1142) (P23458 849-1154): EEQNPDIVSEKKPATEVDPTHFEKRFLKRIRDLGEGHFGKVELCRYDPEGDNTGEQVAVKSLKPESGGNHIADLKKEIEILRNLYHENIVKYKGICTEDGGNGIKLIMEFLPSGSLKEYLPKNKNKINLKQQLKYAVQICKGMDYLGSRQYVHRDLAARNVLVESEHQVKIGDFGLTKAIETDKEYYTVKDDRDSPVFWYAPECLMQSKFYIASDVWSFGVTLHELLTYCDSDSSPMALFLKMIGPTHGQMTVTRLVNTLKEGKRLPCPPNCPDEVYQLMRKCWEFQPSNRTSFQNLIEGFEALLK
T1 sequence (O60674 828-1132): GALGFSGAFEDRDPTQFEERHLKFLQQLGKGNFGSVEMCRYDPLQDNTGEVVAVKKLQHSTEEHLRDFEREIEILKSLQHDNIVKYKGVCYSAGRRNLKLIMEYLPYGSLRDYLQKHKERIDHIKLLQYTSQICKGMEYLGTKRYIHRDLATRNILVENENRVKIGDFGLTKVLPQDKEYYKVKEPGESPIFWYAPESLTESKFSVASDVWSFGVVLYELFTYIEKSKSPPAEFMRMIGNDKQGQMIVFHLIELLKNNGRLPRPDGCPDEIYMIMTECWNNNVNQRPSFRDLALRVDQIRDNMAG

As for `N#CC[C@]1(n2cc(-c3ncnc4[nH]ccc34)cn2)C[C@H](N2CCN(Cc3c(F)ccc(F)c3Cl)CC2)C1` [Example 16b, {trans-3-[4-(2-chloro-3,6-difluorobenzyl)piperazin-1-yl]-1-[4-(7H-pyrrolo[2,3-d]pyrimidin-4-yl)-1H-pyrazol-1-yl]cyclobutyl}acetonitrile], the IC50 at JAK2 (a.a. 828-1132) (Table B) is 25 to 100 nM; in test [1] (Table B), under 10 nM.
With `N#CC[C@]1(n2cc(-c3ncnc4[nH]ccc34)cn2)C[C@@H](N2CCN(C(=O)c3cc(F)cc(C(F)(F)F)c3)CC2)C1` [Example 17, {cis-3-{4-[3-fluoro-5-(trifluoromethyl)benzoyl]piperazin-1-yl}-1-[4-(7H-pyrrolo[2,3-d]pyrimidin-4-yl)-1H-pyrazol-1-yl]cyclobutyl}acetonitrile], the IC50 was 25 to 100 nM at JAK2 (a.a. 828-1132) (Table A) and under 10 nM in test [1] (Table A).
For the molecule `N#CC[C@]1(n2cc(-c3ncnc4[nH]ccc34)cn2)C[C@H](N2CCN(C(=O)c3ccc(C(F)(F)F)cc3F)CC2)C1` [Example 18, {trans-3-{4-[2-fluoro-4-(trifluoromethyl)benzoyl]piperazin-1-yl}-1-[4-(7H-pyrrolo[2,3-d]pyrimidin-4-yl)-1H-pyrazol-1-yl]cyclobutyl}acetonitrile 2.3×(trifluoroacetate) Salt], the concentration for half-maximal inhibition (IC50) at JAK2 (a.a. 828-1132) (Table B) is 10 to 25 nM; in test [1] (Table B), under 10 nM.
Taken in the same sequence, the figures for `N#CC[C@]1(n2cc(-c3ncnc4[nH]ccc34)cn2)C[C@H](N2CCN(C(=O)N3CCCC3)CC2)C1` [Example 19, {trans-3-[4-(pyrrolidin-1-ylcarbonyl)piperazin-1-yl]-1-[4-(7H-pyrrolo[2,3-d]pyrimidin-4-yl)-1H-pyrazol-1-yl]cyclobutyl}acetonitrile] were over 100 nM and 10 to 25 nM.
For `N#CC[C@]1(n2cc(-c3ncnc4[nH]ccc34)cn2)C[C@@H](N2CCN(C(=O)c3cccc(C(F)(F)F)n3)CC2)C1` [Example 20a, {cis-1-[4-(7H-pyrrolo[2,3-d]pyrimidin-4-yl)-1H-pyrazol-1-yl]-3-(4-{[6-(trifluoromethyl)pyridin-2-yl]carbonyl}piperazin-1-yl)cyclobutyl}acetonitrile], the figures for the IC50 (at JAK2 (a.a. 828-1132) (Table A); in test [1] (Table A)) were 25 to 100 nM and under 10 nM, respectively.
Consider `N#CC[C@]1(n2cc(-c3ncnc4[nH]ccc34)cn2)C[C@H](N2CCN(C(=O)c3cccc(C(F)(F)F)n3)CC2)C1` [Example 20b, {trans-1-[4-(7H-pyrrolo[2,3-d]pyrimidin-4-yl)-1H-pyrazol-1-yl]-3-(4-{[6-(trifluoromethyl)pyridin-2-yl]carbonyl}piperazin-1-yl)cyclobutyl}acetonitrile], for which the IC50 was 25 to 100 nM at JAK2 (a.a. 828-1132) (Table B) and under 10 nM in test [1] (Table B).
For the molecule `N#CC[C@]1(n2cc(-c3ncnc4[nH]ccc34)cn2)C[C@@H](N2CCN(C(=O)c3cccc(C(F)F)n3)CC2)C1` [Example 21a, {cis-3-(4-{[6-(difluoromethyl)pyridin-2-yl]carbonyl}piperazin-1-yl)-1-[4-(7H-pyrrolo[2,3-d]pyrimidin-4-yl)-1H-pyrazol-1-yl]cyclobutyl}acetonitrile], the IC50 on JAK2 (a.a. 828-1132) (Table A) is 25 to 100 nM; in test [1] (Table A), under 10 nM.
On to `N#CC[C@]1(n2cc(-c3ncnc4[nH]ccc34)cn2)C[C@H](N2CCN(C(=O)c3cccc(C(F)F)n3)CC2)C1` [Example 21b, {trans-3-(4-{[6-(difluoromethyl)pyridin-2-yl]carbonyl}piperazin-1-yl)-1-[4-(7H-pyrrolo[2,3-d]pyrimidin-4-yl)-1H-pyrazol-1-yl]cyclobutyl}acetonitrile], for which the 50% inhibitory concentration (IC50) at JAK2 (a.a. 828-1132) (Table B) was 10 to 25 nM; in test [1] (Table B), under 10 nM.
On to `N#CC[C@]1(n2cc(-c3ncnc4[nH]ccc34)cn2)C[C@@H](N2CCN(C(=O)c3cccc(C(F)(F)F)c3F)CC2)C1` [Example 22, {cis-3-{4-[2-fluoro-3-(trifluoromethyl)benzoyl]piperazin-1-yl}-1-[4-(7H-pyrrolo[2,3-d]pyrimidin-4-yl)-1H-pyrazol-1-yl]cyclobutyl}acetonitrile], for which the values for the concentration for half-maximal inhibition (IC50) (at JAK2 (a.a. 828-1132) (Table A); in test [1] (Table A)) were 25 to 100 nM and under 10 nM, respectively.
For `N#CC[C@]1(n2cc(-c3ncnc4[nH]ccc34)cn2)C[C@@H](N2CCN(Cc3cncc(F)c3)CC2)C1` [Example 23a, {cis-3-{4-[(5-fluoropyridin-3-yl)methyl]piperazin-1-yl}-1-[4-(7H-pyrrolo[2,3-d]pyrimidin-4-yl)-1H-pyrazol-1-yl]cyclobutyl}acetonitrile], in that order: over 100 nM and 10 to 25 nM.
For the molecule `N#CC[C@]1(n2cc(-c3ncnc4[nH]ccc34)cn2)C[C@H](N2CCN(Cc3cncc(F)c3)CC2)C1` [Example 23b, {trans-3-{4-[(5-fluoropyridin-3-yl)methyl]piperazin-1-yl}-1-[4-(7H-pyrrolo[2,3-d]pyrimidin-4-yl)-1H-pyrazol-1-yl]cyclobutyl}acetonitrile], the 50% inhibitory concentration (IC50) on JAK2 (a.a. 828-1132) (Table B) was 25 to 100 nM; in test [1] (Table B), under 10 nM.
Turning to `CC(C)c1nccc(C(=O)N2CCN([C@H]3C[C@@](CC#N)(n4cc(-c5ncnc6[nH]ccc56)cn4)C3)CC2)n1` [Example 24a, {cis-3-{4-[(2-isopropylpyrimidin-4-yl)carbonyl]piperazin-1-yl}-1-[4-(7H-pyrrolo[2,3-d]pyrimidin-4-yl)-1H-pyrazol-1-yl]cyclobutyl}acetonitrile], the IC50 on JAK2 (a.a. 828-1132) (Table A) was over 100 nM; in test [1] (Table A), 10 to 25 nM.
Consider `CC(C)c1nccc(C(=O)N2CCN([C@H]3C[C@](CC#N)(n4cc(-c5ncnc6[nH]ccc56)cn4)C3)CC2)n1` [Example 24b, {trans-3-{4-[(2-isopropylpyrimidin-4-yl)carbonyl]piperazin-1-yl}-1-[4-(7H-pyrrolo[2,3-d]pyrimidin-4-yl)-1H-pyrazol-1-yl]cyclobutyl}acetonitrile], for which the values for the IC50 (at JAK2 (a.a. 828-1132) (Table B); in test [1] (Table B)) were 25 to 100 nM and 10 to 25 nM, respectively.
Take `N#CC[C@]1(n2cc(-c3ncnc4[nH]ccc34)cn2)C[C@H](N2CCN(C(=O)N3CCCCC3)CC2)C1` [Example 25, {trans-3-[4-(piperidin-1-ylcarbonyl)piperazin-1-yl]-1-[4-(7H-pyrrolo[2,3-d]pyrimidin-4-yl)-1H-pyrazol-1-yl]cyclobutyl}acetonitrile]: the values for the half-inhibitory concentration (IC50) (at JAK2 (a.a. 828-1132) (Table B); in test [1] (Table B)) were over 100 nM and 25 to 100 nM, respectively.
For `N#CC[C@]1(n2cc(-c3ncnc4[nH]ccc34)cn2)C[C@@H](N2CCN(C(=O)c3ccc(F)c(OC(F)(F)F)c3)CC2)C1` [Example 26, {cis-3-{4-[4-fluoro-3-(trifluoromethoxy)benzoyl]piperazin-1-yl}-1-[4-(7H-pyrrolo[2,3-d]pyrimidin-4-yl)-1H-pyrazol-1-yl]cyclobutyl}acetonitrile], the values for the 50% inhibitory concentration (IC50) (on JAK2 (a.a. 828-1132) (Table A); in test [1] (Table A)) were 25 to 100 nM and 10 to 25 nM, respectively.
For `N#CC[C@]1(n2cc(-c3ncnc4[nH]ccc34)cn2)C[C@@H](N2CCN(C(=O)c3ncc(C(F)(F)F)cc3F)CC2)C1` [Example 27, {cis-3-(4-{[3-fluoro-5-(trifluoromethyl)pyridin-2-yl]carbonyl}piperazin-1-yl)-1-[4-(7H-pyrrolo[2,3-d]pyrimidin-4-yl)-1H-pyrazol-1-yl]cyclobutyl}acetonitrile], the values for the IC50 (on JAK2 (a.a. 828-1132) (Table A); in test [1] (Table A)) were 25 to 100 nM and under 10 nM, respectively.
As for `N#CC[C@]1(n2cc(-c3ncnc4[nH]ccc34)cn2)C[C@@H](N2CCN(C(=O)c3ccc(Cl)cc3)CC2)C1` [Example 28, {cis-3-{4-[4-chlorobenzoyl]piperazin-1-yl}-1-[4-(7H-pyrrolo[2,3-d]pyrimidin-4-yl)-1H-pyrazol-1-yl]cyclobutyl}acetonitrile], the half-inhibitory concentration (IC50) at JAK2 (a.a. 828-1132) (Table A) was 10 to 25 nM; in test [1] (Table A), under 10 nM.
Taken in the same sequence, the figures for `N#CC[C@]1(n2cc(-c3ncnc4[nH]ccc34)cn2)C[C@@H](N2CCN(C(=O)c3ccc(C(F)(F)F)cc3F)CC2)C1` [Example 29, {cis-3-{4-[2-fluoro-4-(trifluoromethyl)benzoyl]piperazin-1-yl}-1-[4-(7H-pyrrolo[2,3-d]pyrimidin-4-yl)-1H-pyrazol-1-yl]cyclobutyl}acetonitrile 2.3×(trifluoroacetate) Salt] were 25 to 100 nM and 10 to 25 nM.
As for `[2H][C@]1(N2CCN(C(=O)c3ccnc(C(F)(F)F)n3)CC2)C[C@@](CC#N)(n2cc(-c3ncnc4[nH]ccc34)cn2)C1` [Example 30, [cis-1-[4-(7H-pyrrolo[2,3-d]pyrimidin-4-yl)-1H-pyrazol-1-yl]-3-(4-{[2-(trifluoromethyl)pyrimidin-4-yl]carbonyl}piperazin-1-yl)cyclobutyl]acetonitrile-d1], the values for the half-maximal inhibitory concentration (IC50) (at JAK2 (a.a. 828-1132) (Table C); in test [1] (Table C)) were over 100 nM and under 10 nM, respectively.
For `[2H][C@]1(N2CCN(C(=O)c3ccnc(C(F)(F)F)n3)CC2)C[C@](CC#N)(n2cc(-c3ncnc4[nH]ccc34)cn2)C1` [Example 31, [trans-1-[4-(7H-pyrrolo[2,3-d]pyrimidin-4-yl)-1H-pyrazol-1-yl]-3-(4-{[2-(trifluoromethyl)pyrimidin-4-yl]carbonyl}piperazin-1-yl)cyclobutyl]acetonitrile-d1], the figures for the half-maximal inhibitory concentration (IC50) (at JAK2 (a.a. 828-1132) (Table D); in test [1] (Table D)) were 25 to 100 nM and under 10 nM, respectively.
With `CN(C)C(=O)N1CCN([C@H]2C[C@](CC#N)(n3cc(-c4ncnc5[nH]ccc45)cn3)C2)CC1` [Example 32, 4-{trans-3-(cyanomethyl)-3-[4-(7H-pyrrolo[2,3-d]pyrimidin-4-yl)-1H-pyrazol-1-yl]cyclobutyl}-N,N-dimethylpiperazine-1-carboxamide], the IC50 at JAK2 (a.a. 828-1132) (Table B) is over 100 nM; in test [1] (Table B) it was under 10 nM.

The term IC50 denotes the concentration that gives 50% inhibition.
